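Exposure lasted 48 hours, with cells grown in 96-well plates and compounds tested at five concentrations. At the GI50, growth is halved.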 Active and inactive are the calls of the source. Cut-off read from the data, not from the text of the source: active = GI50 up to about 1.1 µM and inactive = higher.
How the values were obtained:
Experiment in all cases: growth of human tumour cells (NCI), 48 h
[1] = tested on: SK-MEL-5
[2] = tested on: CAKI-1
[3] = tested on: M14
[4] = tested on: COLO 205
[5] = tested on: MOLT-4
[6] = tested on: UO-31
[7] = tested on: UACC-257
[8] = tested on: UACC-62
[9] = tested on: IGROV-1
[10] = tested on: RXF 393
[11] = tested on: EKVX
[12] = tested on: RPMI-8226
[13] = tested on: OVCAR-8
[14] = tested on: SNB-75
[15] = tested on: NCI-H460
[16] = tested on: HOP-62
[17] = tested on: OVCAR-3
[18] = tested on: MDA-MB-435
[19] = tested on: DU-145

For `COC(=O)C(=O)C(C(=O)C(=O)Nc1cc(C)ccc1C)c1nc2ccc(C(=O)c3ccccc3)cc2nc1O` (stereo not given), the GI50 [1] was 62.1 µM (inactive), the GI50 [2] was 27.5 µM (inactive) and the GI50 [3] was > 100 µM (inactive). For the same compound, the GI50 [4] was > 100 µM (inactive), the GI50 [5] was 48.9 µM (inactive) and the GI50 [6] was 52.7 µM (inactive). The GI50 [7] was > 100 µM (inactive), the GI50 [8] was 37.2 µM (inactive) and the GI50 [9] was > 100 µM (inactive). The GI50 [10] was 46.3 µM (inactive), the GI50 [11] was > 100 µM (inactive) and the GI50 [12] was 94.2 µM (inactive). For the same compound, the GI50 [13] was > 100 µM (inactive).
For `NC(=S)N/N=C1/C(=O)N(c2ccc(Cl)cc2Cl)C(=O)C(=O)C1c1nc2ccccc2s1` (stereo not given), the GI50 [1] was > 100 µM (inactive), the GI50 [2] was > 100 µM (inactive) and the GI50 [3] was > 100 µM (inactive). The GI50 [4] was > 100 µM (inactive), the GI50 [5] was 52.1 µM (inactive) and the GI50 [14] was > 100 µM (inactive). For the same compound, the GI50 [6] was > 100 µM (inactive), the GI50 [7] was > 100 µM (inactive) and the GI50 [8] was > 100 µM (inactive). For the same compound, the GI50 [9] was > 100 µM (inactive), the GI50 [10] was > 100 µM (inactive) and the GI50 [15] was > 100 µM (inactive). For the same compound, the GI50 [11] was > 100 µM (inactive), the GI50 [12] was > 100 µM (inactive) and the GI50 [16] was > 100 µM (inactive). For the same compound, the GI50 [13] was > 100 µM (inactive) and the GI50 [17] was > 100 µM (inactive).
`CCOC(=O)c1c(C)n(C)c2c1cc(O)c1[nH]c3c(c12)CCCC3` was tested, and the GI50 [1] was 12.3 µM (inactive), the GI50 [2] was 28.4 µM (inactive) and the GI50 [3] was 13.2 µM (inactive). The GI50 [4] was 10.8 µM (inactive), the GI50 [5] was 16.9 µM (inactive) and the GI50 [6] was 19.6 µM (inactive). The GI50 [7] was 3.61 µM (inactive), the GI50 [18] was 13.4 µM (inactive) and the GI50 [8] was 18.8 µM (inactive). For the same compound, the GI50 [9] was 12.7 µM (inactive), the GI50 [15] was 20.5 µM (inactive) and the GI50 [11] was 17.6 µM (inactive). For the same compound, the GI50 [12] was 3.93 µM (inactive), the GI50 [16] was 38.3 µM (inactive) and the GI50 [19] was 22.8 µM (inactive). The GI50 [13] was 21 µM (inactive) and the GI50 [17] was 5.62 µM (inactive).
In the case of `[O-][n+]1c2ccccc2[n+]([O-])c2ccccc21`, the GI50 [1] was 37.5 µM (inactive), the GI50 [2] was > 100 µM (inactive) and the GI50 [3] was 33.1 µM (inactive). For the same compound, the GI50 [4] was 15.6 µM (inactive), the GI50 [5] was 2.74 µM (inactive) and the GI50 [14] was > 100 µM (inactive). For the same compound, the GI50 [6] was > 100 µM (inactive), the GI50 [7] was > 100 µM (inactive) and the GI50 [18] was > 100 µM (inactive). For the same compound, the GI50 [8] was > 100 µM (inactive), the GI50 [9] was 46.5 µM (inactive) and the GI50 [15] was 30.1 µM (inactive). For the same compound, the GI50 [11] was > 100 µM (inactive), the GI50 [12] was 16.8 µM (inactive) and the GI50 [16] was > 100 µM (inactive). For the same compound, the GI50 [19] was 45.4 µM (inactive) and the GI50 [13] was 86.3 µM (inactive).
With `CN(C)CCNC1=CC(=O)c2nc3ccccc3c3ccnc1c23` the GI50 [2] was 4.02 µM (inactive), the GI50 [3] was 7.6 µM (inactive) and the GI50 [4] was 2.75 µM (inactive). For the same compound, the GI50 [5] was 2.48 µM (inactive), the GI50 [14] was 13.1 µM (inactive) and the GI50 [6] was 3.89 µM (inactive). For the same compound, the GI50 [7] was 9.62 µM (inactive), the GI50 [18] was 7.52 µM (inactive) and the GI50 [8] was 5.31 µM (inactive). The GI50 [9] was 2.47 µM (inactive), the GI50 [15] was 2.39 µM (inactive) and the GI50 [11] was 2.94 µM (inactive). The GI50 [12] was 5.47 µM (inactive), the GI50 [16] was 4.79 µM (inactive) and the GI50 [19] was 8.2 µM (inactive). For the same compound, the GI50 [13] was 4.36 µM (inactive) and the GI50 [17] was 2.78 µM (inactive).
In the case of `NC(C(=O)O)C(N)C(=O)O` (stereo not given), the GI50 [1] was > 100 µM (inactive), the GI50 [2] was > 100 µM (inactive) and the GI50 [3] was > 100 µM (inactive). For the same compound, the GI50 [4] was > 100 µM (inactive), the GI50 [5] was > 100 µM (inactive) and the GI50 [6] was > 100 µM (inactive). For the same compound, the GI50 [7] was > 100 µM (inactive), the GI50 [8] was > 100 µM (inactive) and the GI50 [9] was > 100 µM (inactive). For the same compound, the GI50 [10] was > 100 µM (inactive), the GI50 [15] was > 100 µM (inactive) and the GI50 [11] was > 100 µM (inactive). For the same compound, the GI50 [12] was > 100 µM (inactive), the GI50 [16] was > 100 µM (inactive) and the GI50 [19] was > 100 µM (inactive). For the same compound, the GI50 [13] was > 100 µM (inactive) and the GI50 [17] was > 100 µM (inactive).
For `CCOC(=O)C(=[N+]=[N-])C(=O)C1(C(=O)OCC)CCN(C(=O)c2ccccc2)C1=O` (stereo not given), the GI50 [1] was > 100 µM (inactive), the GI50 [2] was > 100 µM (inactive) and the GI50 [3] was > 100 µM (inactive). For the same compound, the GI50 [4] was > 100 µM (inactive), the GI50 [5] was > 100 µM (inactive) and the GI50 [14] was > 100 µM (inactive). For the same compound, the GI50 [6] was > 100 µM (inactive), the GI50 [7] was > 100 µM (inactive) and the GI50 [8] was > 100 µM (inactive). For the same compound, the GI50 [9] was > 100 µM (inactive), the GI50 [10] was > 100 µM (inactive) and the GI50 [15] was > 100 µM (inactive). The GI50 [11] was > 100 µM (inactive), the GI50 [16] was > 100 µM (inactive) and the GI50 [19] was > 100 µM (inactive). For the same compound, the GI50 [13] was > 100 µM (inactive).
`COc1nc(SC)nc2c1C(O)n1c(nc3ccccc31)S2` (stereo not given) was tested, and the GI50 [2] was 41.3 µM (inactive), the GI50 [3] was 60.4 µM (inactive) and the GI50 [5] was 4.15 µM (inactive). The GI50 [6] was 3.08 µM (inactive), the GI50 [7] was 59.6 µM (inactive) and the GI50 [18] was 20.1 µM (inactive). The GI50 [8] was 0.551 µM (active), the GI50 [9] was 40.9 µM (inactive) and the GI50 [15] was 15 µM (inactive). For the same compound, the GI50 [11] was 36.1 µM (inactive), the GI50 [12] was 0.42 µM (active) and the GI50 [16] was 12.1 µM (inactive). For the same compound, the GI50 [19] was 53.7 µM (inactive), the GI50 [13] was 14.1 µM (inactive) and the GI50 [17] was 32.7 µM (inactive).
With `CC(C)/C(Cl)=N\OC(=O)Nc1ccccc1F` the GI50 [1] was 14.5 µM (inactive), the GI50 [2] was 21.3 µM (inactive) and the GI50 [3] was 5.73 µM (inactive). The GI50 [4] was 2.03 µM (inactive), the GI50 [5] was 2.82 µM (inactive) and the GI50 [14] was 10.2 µM (inactive). For the same compound, the GI50 [6] was 16.1 µM (inactive), the GI50 [7] was 18.3 µM (inactive) and the GI50 [8] was 17.3 µM (inactive). For the same compound, the GI50 [9] was 17.7 µM (inactive), the GI50 [10] was 3.15 µM (inactive) and the GI50 [15] was 18.7 µM (inactive). The GI50 [11] was 16.9 µM (inactive), the GI50 [12] was 6.04 µM (inactive) and the GI50 [16] was > 41.1 µM (inactive). For the same compound, the GI50 [19] was 16.4 µM (inactive), the GI50 [13] was 17.2 µM (inactive) and the GI50 [17] was 17.7 µM (inactive).
For `Nc1ncnc2c1ncn2[C@@H]1C[C@@H]1CO`, the GI50 [5] was > 100 µM (inactive), the GI50 [6] was > 100 µM (inactive) and the GI50 [7] was > 100 µM (inactive). For the same compound, the GI50 [18] was > 100 µM (inactive), the GI50 [15] was > 100 µM (inactive) and the GI50 [11] was > 100 µM (inactive). For the same compound, the GI50 [12] was > 100 µM (inactive), the GI50 [16] was > 100 µM (inactive) and the GI50 [13] was > 100 µM (inactive). The GI50 [17] was > 100 µM (inactive).
For `S=C(Nc1ccc(Cl)cc1)c1ccc(CN2CCCCC2)s1`, the GI50 [1] was 3.08 µM (inactive), the GI50 [2] was 12.2 µM (inactive) and the GI50 [3] was 4.09 µM (inactive). The GI50 [4] was 2.68 µM (inactive), the GI50 [5] was 2.77 µM (inactive) and the GI50 [6] was 7.8 µM (inactive). For the same compound, the GI50 [7] was 10.6 µM (inactive), the GI50 [18] was 4.03 µM (inactive) and the GI50 [8] was 5.22 µM (inactive). The GI50 [9] was 2.86 µM (inactive), the GI50 [15] was 4.62 µM (inactive) and the GI50 [11] was 12.3 µM (inactive). The GI50 [12] was 3.02 µM (inactive), the GI50 [19] was 19.8 µM (inactive) and the GI50 [13] was 4.22 µM (inactive). The GI50 [17] was 31.1 µM (inactive).
In the case of `CC1(C)OCC2(CO1)CSCCCSCC1(COC(C)(C)OC1)CSCCCSC2`, the GI50 [1] was > 100 µM (inactive), the GI50 [3] was > 100 µM (inactive) and the GI50 [4] was > 100 µM (inactive). The GI50 [5] was > 100 µM (inactive), the GI50 [14] was 90.6 µM (inactive) and the GI50 [6] was > 100 µM (inactive). The GI50 [7] was > 100 µM (inactive), the GI50 [18] was > 100 µM (inactive) and the GI50 [8] was > 100 µM (inactive). The GI50 [9] was > 100 µM (inactive), the GI50 [15] was > 100 µM (inactive) and the GI50 [11] was > 100 µM (inactive). The GI50 [12] was > 100 µM (inactive), the GI50 [16] was > 100 µM (inactive) and the GI50 [19] was > 100 µM (inactive). The GI50 [13] was > 100 µM (inactive) and the GI50 [17] was > 100 µM (inactive).

— ChEMBL document CHEMBL1201862, “PubChem BioAssay data set” (2004)
